Data published in PMC10191551, “Safety, Tolerability, and Pharmacokinetics of Oral Ferric Maltol in Children With Iron Deficiency: Phase 1 Study” (JPGN Reports, 2021).

How the values were obtained:
[1] = Phase 1 study: iron uptake (serum iron and TSAT) after oral ferric maltol; assay type: in vivo, children; details: 7.8, 16.6, 30 mg b.d.
From the text: Serum iron and TSAT provided measures of iron uptake.

[2] = cited from earlier work
[3] = parameters: method as in PMID 34029682; details: patients with CKD, over 16 weeks; ref [35]; cited from earlier work
[4] = Phase 1 study: safety and tolerability (adverse events, vital signs, ECG, laboratory tests, compliance) of oral ferric maltol; details: for Patients With an AE: Any AE: safety population
From the text: This phase 1, randomized, open-label, parallel-group pharmacokinetic study involved children seen as outpatients at 6 centers in the UK: Alder Hey Children’s NHS Foundation Trust; King’s College Hospital NHS Foundation Trust; University Hospitals of Leicester NHS Trust; Nottingham University Hospitals NHS Trust; Manchester University NHS Foundation Trust; and University College London Hospitals NHS Foundation Trust. […] Children aged 16 years or older and parents or guardians of children younger than 16 years provided written informed consent to participate before study initiation.
Children aged 10–17 years with confirmed iron deficiency at screening (defined as either ferritin <30 µg/L or ferritin <50 µg/L with transferrin saturation [TSAT] <20%) were eligible for inclusion in the study. Patients with or without anemia could be enrolled, provided hemoglobin was ≥8.5 g/dL at screening. Girls of childbearing potential had to agree to use adequate contraception during and until 4 weeks after the end of the study.
The study comprised a screening period followed by a 10-day randomized treatment period and a post-treatment safety follow-up. Children were randomized 1:1:1 (stratified by age [10–14 vs 15–17 years] and sex) to ferric maltol 7.8 mg, 16.6 mg, or 30 mg twice daily (b.d.) for 9 days and once in the morning of day 10. The first and last doses of ferric maltol were taken in the presence of the investigator. Children took each dose with a glass of water 1 hour before or 2 hours after a meal. Doses were based on daily elemental iron requirements for the broad range of body weights of participants likely to be enrolled, with the aim of finding a minimum effective dose in this age group. The 30 mg b.d. adult dosage was chosen as the highest exposure; dosages of 16.6 mg b.d. and 7.8 mg b.d. were chosen as approximately one-half and one-quarter of the adult dose, respectively, with the exact dose depending on the full fill of available capsule shell sizes.
The primary objectives were to assess iron uptake and ferric maltol pharmacokinetics. Serum iron and TSAT provided measures of iron uptake. In adults, dissociated maltol undergoes rapid glucuronidation and is cleared in urine as maltol glucuronide (36); therefore, in this study, plasma maltol glucuronide was measured to confirm the rate of clearance in children. The secondary objective was to assess the safety and tolerability of ferric maltol in terms of vital signs, AEs, concomitant medications, 12-lead electrocardiograms, and clinical laboratory blood tests.
Safety analyses were conducted in all patients who received at least 1 dose of the study medication and had at least 1 subsequent visit (the safety population). […] Clinically significant changes from baseline in vital signs, physical examination, and routine clinical laboratory abnormalities were also recorded.

Cc1occc(=O)c1[O-].Cc1occc(=O)c1[O-].Cc1occc(=O)c1[O-].[Fe+3] [Ferric maltol]
Dose dependence of changes in serum iron concentrations [1]: not dose-dependent
Iron uptake (serum iron and TSAT) ([1]; days 1 and 10, ITT population): increased iron uptake
Hemoglobin concentrations versus placebo ([2]; patients with IBD, over 12 weeks, ref [19]): significantly increased hemoglobin concentrations compared with placebo
Incidence of gastrointestinal TEAEs ([2]; phase 3 trial in adults with IBD, ref [19],[20]): 38%
Hemoglobin and iron indices [3]: statistical and clinically significant increases in hemoglobin and iron indices
Patients With an AE: Any SAE ([4]; 7.8 mg b.d. (n = 12)): 0 (0.0) n (%)
Patients With an AE: Any TEAE ([4]; 7.8 mg b.d. (n = 12)): 7 (58.3) n (%)
Patients With an AE: TEAE leading to study discontinuation ([4]; 7.8 mg b.d. (n = 12)): 0 (0.0) n (%)
Patients With an AE: TEAE related to study drug ([4]; 7.8 mg b.d. (n = 12)): 3 (25.0) n (%)
Patients with a TEAE: Abdominal distension ([4]; 7.8 mg b.d. (n = 12)): 0 (0.0) n (%)
Patients with a TEAE: Abdominal pain ([4]; 7.8 mg b.d. (n = 12)): 0 (0.0) n (%)
Patients with a TEAE: Anal incontinence ([4]; 7.8 mg b.d. (n = 12)): 0 (0.0) n (%)
Patients with a TEAE: Cellulitis ([4]; 7.8 mg b.d. (n = 12)): 1 (8.3) n (%)
Patients with a TEAE: Constipation ([4]; 7.8 mg b.d. (n = 12)): 0 (0.0) n (%)
Patients with a TEAE: Cough ([4]; 7.8 mg b.d. (n = 12)): 1 (8.3) n (%)
Patients with a TEAE: Diarrhea ([4]; 7.8 mg b.d. (n = 12)): 2 (16.7) n (%)
Patients with a TEAE: Dizziness ([4]; 7.8 mg b.d. (n = 12)): 0 (0.0) n (%)
Patients with a TEAE: Dyspepsia ([4]; 7.8 mg b.d. (n = 12)): 0 (0.0) n (%)
Patients with a TEAE: Dyspnea ([4]; 7.8 mg b.d. (n = 12)): 1 (8.3) n (%)
Patients with a TEAE: Fatigue ([4]; 7.8 mg b.d. (n = 12)): 1 (8.3) n (%)
Patients with a TEAE: Nausea ([4]; 7.8 mg b.d. (n = 12)): 1 (8.3) n (%)
Patients with a TEAE: Nevus hemorrhage ([4]; 7.8 mg b.d. (n = 12)): 1 (8.3) n (%)
Patients with a TEAE: Palpitations ([4]; 7.8 mg b.d. (n = 12)): 1 (8.3) n (%)
Patients with a TEAE: Papule ([4]; 7.8 mg b.d. (n = 12)): 0 (0.0) n (%)
Patients with a TEAE: Pyrexia ([4]; 7.8 mg b.d. (n = 12)): 0 (0.0) n (%)
Patients with a TEAE: Skin abrasion ([4]; 7.8 mg b.d. (n = 12)): 0 (0.0) n (%)
Patients with a TEAE: Sneezing ([4]; 7.8 mg b.d. (n = 12)): 1 (8.3) n (%)
Patients with a TEAE: Tonsillitis ([4]; 7.8 mg b.d. (n = 12)): 0 (0.0) n (%)
Patients with a TEAE: Vomiting ([4]; 7.8 mg b.d. (n = 12)): 1 (8.3) n (%)
TEAEs by system organ class: Cardiac disorders ([4]; 7.8 mg b.d. (n = 12)): 1 (8.3) n (%)
TEAEs by system organ class: Gastrointestinal disorders ([4]; 7.8 mg b.d. (n = 12)): 4 (33.3) n (%)
TEAEs by system organ class: General disorders and administration-site conditions ([4]; 7.8 mg b.d. (n = 12)): 1 (8.3) n (%)
TEAEs by system organ class: Injury, poisoning, and procedural complications ([4]; 7.8 mg b.d. (n = 12)): 0 (0.0) n (%)
TEAEs by system organ class: Neoplasms benign, malignant, and unspecified ([4]; 7.8 mg b.d. (n = 12)): 1 (8.3) n (%)
TEAEs by system organ class: Nervous system disorders ([4]; 7.8 mg b.d. (n = 12)): 1 (8.3) n (%)
TEAEs by system organ class: Respiratory, thoracic, and mediastinal disorders ([4]; 7.8 mg b.d. (n = 12)): 3 (25.0) n (%)
TEAEs by system organ class: Skin and subcutaneous-tissue disorders ([4]; 7.8 mg b.d. (n = 12)): 1 (8.3) n (%)
Patients With an AE: Any AE ([4]; 7.8 mg b.d. (n = 12)): 7 (58.3) n (%)
Patients With an AE: Any SAE ([4]; 16.6 mg b.d. (n = 13)): 0 (0.0) n (%)
Patients With an AE: Any TEAE ([4]; 16.6 mg b.d. (n = 13)): 6 (46.2) n (%)
Patients With an AE: TEAE leading to study discontinuation ([4]; 16.6 mg b.d. (n = 13)): 1 (7.7) n (%)
Patients With an AE: TEAE related to study drug ([4]; 16.6 mg b.d. (n = 13)): 1 (7.7) n (%)
Patients with a TEAE: Abdominal distension ([4]; 16.6 mg b.d. (n = 13)): 0 (0.0) n (%)
Patients with a TEAE: Abdominal pain ([4]; 16.6 mg b.d. (n = 13)): 0 (0.0) n (%)
Patients with a TEAE: Anal incontinence ([4]; 16.6 mg b.d. (n = 13)): 0 (0.0) n (%)
Patients with a TEAE: Cellulitis ([4]; 16.6 mg b.d. (n = 13)): 0 (0.0) n (%)
Patients with a TEAE: Constipation ([4]; 16.6 mg b.d. (n = 13)): 0 (0.0) n (%)
Patients with a TEAE: Cough ([4]; 16.6 mg b.d. (n = 13)): 0 (0.0) n (%)
Patients with a TEAE: Diarrhea ([4]; 16.6 mg b.d. (n = 13)): 0 (0.0) n (%)
Patients with a TEAE: Dizziness ([4]; 16.6 mg b.d. (n = 13)): 1 (7.7) n (%)
Patients with a TEAE: Dyspepsia ([4]; 16.6 mg b.d. (n = 13)): 0 (0.0) n (%)
Patients with a TEAE: Dyspnea ([4]; 16.6 mg b.d. (n = 13)): 0 (0.0) n (%)
Patients with a TEAE: Fatigue ([4]; 16.6 mg b.d. (n = 13)): 1 (7.7) n (%)
Patients with a TEAE: Nausea ([4]; 16.6 mg b.d. (n = 13)): 0 (0.0) n (%)
Patients with a TEAE: Nevus hemorrhage ([4]; 16.6 mg b.d. (n = 13)): 0 (0.0) n (%)
Patients with a TEAE: Palpitations ([4]; 16.6 mg b.d. (n = 13)): 0 (0.0) n (%)
Patients with a TEAE: Papule ([4]; 16.6 mg b.d. (n = 13)): 0 (0.0) n (%)
Patients with a TEAE: Pyrexia ([4]; 16.6 mg b.d. (n = 13)): 0 (0.0) n (%)
Patients with a TEAE: Skin abrasion ([4]; 16.6 mg b.d. (n = 13)): 1 (7.7) n (%)
Patients with a TEAE: Sneezing ([4]; 16.6 mg b.d. (n = 13)): 0 (0.0) n (%)
Patients with a TEAE: Tonsillitis ([4]; 16.6 mg b.d. (n = 13)): 1 (7.7) n (%)
Patients with a TEAE: Vomiting ([4]; 16.6 mg b.d. (n = 13)): 1 (7.7) n (%)
TEAEs by system organ class: Cardiac disorders ([4]; 16.6 mg b.d. (n = 13)): 0 (0.0) n (%)
TEAEs by system organ class: Gastrointestinal disorders ([4]; 16.6 mg b.d. (n = 13)): 2 (15.4) n (%)
TEAEs by system organ class: General disorders and administration-site conditions ([4]; 16.6 mg b.d. (n = 13)): 2 (15.4) n (%)
TEAEs by system organ class: Injury, poisoning, and procedural complications ([4]; 16.6 mg b.d. (n = 13)): 1 (7.7) n (%)
TEAEs by system organ class: Neoplasms benign, malignant, and unspecified ([4]; 16.6 mg b.d. (n = 13)): 0 (0.0) n (%)
TEAEs by system organ class: Nervous system disorders ([4]; 16.6 mg b.d. (n = 13)): 3 (23.1) n (%)
TEAEs by system organ class: Respiratory, thoracic, and mediastinal disorders ([4]; 16.6 mg b.d. (n = 13)): 0 (0.0) n (%)
TEAEs by system organ class: Skin and subcutaneous-tissue disorders ([4]; 16.6 mg b.d. (n = 13)): 0 (0.0) n (%)
Patients With an AE: Any AE ([4]; 16.6 mg b.d. (n = 13)): 7 (53.8) n (%)
Children who discontinued the study early because of a TEAE ([4]; 16.6 mg group, moderate tonsillitis, not related to study drug): 1
Patients With an AE: Any SAE ([4]; 30 mg b.d. (n = 12)): 0 (0.0) n (%)
Patients With an AE: Any TEAE ([4]; 30 mg b.d. (n = 12)): 7 (58.3) n (%)
Patients With an AE: TEAE leading to study discontinuation ([4]; 30 mg b.d. (n = 12)): 0 (0.0) n (%)
Patients With an AE: TEAE related to study drug ([4]; 30 mg b.d. (n = 12)): 5 (41.7) n (%)
Patients with a TEAE: Abdominal distension ([4]; 30 mg b.d. (n = 12)): 1 (8.3) n (%)
Patients with a TEAE: Abdominal pain ([4]; 30 mg b.d. (n = 12)): 1 (8.3) n (%)
Patients with a TEAE: Anal incontinence ([4]; 30 mg b.d. (n = 12)): 1 (8.3) n (%)
Patients with a TEAE: Cellulitis ([4]; 30 mg b.d. (n = 12)): 0 (0.0) n (%)
Patients with a TEAE: Constipation ([4]; 30 mg b.d. (n = 12)): 1 (8.3) n (%)
Patients with a TEAE: Cough ([4]; 30 mg b.d. (n = 12)): 1 (8.3) n (%)
Patients with a TEAE: Diarrhea ([4]; 30 mg b.d. (n = 12)): 1 (8.3) n (%)
Patients with a TEAE: Dizziness ([4]; 30 mg b.d. (n = 12)): 2 (16.7) n (%)
Patients with a TEAE: Dyspepsia ([4]; 30 mg b.d. (n = 12)): 1 (8.3) n (%)
Patients with a TEAE: Dyspnea ([4]; 30 mg b.d. (n = 12)): 0 (0.0) n (%)
Patients with a TEAE: Fatigue ([4]; 30 mg b.d. (n = 12)): 2 (16.7) n (%)
Patients with a TEAE: Nausea ([4]; 30 mg b.d. (n = 12)): 1 (8.3) n (%)
Patients with a TEAE: Nevus hemorrhage ([4]; 30 mg b.d. (n = 12)): 0 (0.0) n (%)
Patients with a TEAE: Palpitations ([4]; 30 mg b.d. (n = 12)): 0 (0.0) n (%)
